Results published in US5597801A, “Biocidal proteins” (priority 1991, dated 1997).
Where no end group is shown, it is not given here.

What was measured:
[1] = tested on: Alternaria longipes strain CBS 620.83; assay: Antifungal activity assay (growth inhibition, microspectrophotometry); format: cell-based; conditions: A longipes; medium B (medium A + 1 mM CaCl2, 50 mM KCl); 48 h
[2] = tested on: Cladosporium sphaerospermum strain KO791; assay: as above; format: cell-based; conditions: C sphaerospermum; medium B (medium A + 1 mM CaCl2, 50 mM KCl); 48 h
[3] = tested on: Escherichia coli strain HB101; assay: Antibacterial activity assay (microspectrophotometry); format: cell-based; conditions: E coli; for IC50 (activity on bacteria): Table 5; for IC50 (antibacterial activity): Table 4, highest test concentration 500 μg/ml
[4] = tested on: Fusarium culmorum spores; format: physicochemical; conditions: for antifungal activity after heat treatment at up to 80° C.: 10 minutes, F culmorum assay; for antifungal activity after reduction of disulphide bonds: reduction by DTE / dithiothreitol
Experimental: Tests for antifungal activity were performed with 20 μl samples diluted five-fold with growth medium containing Fusarium culmorum spores, according to the assay method given in Example 1. Untreated control samples consisted of the test proteins at 500 μg/ml in 10 mM sodium phosphat buffer (pH 7). For digestions, different proteases were added at 100 μg/ml and incubated at 37° C. for 16 hours. Heat stability tests were performed by heating aliquots of the test proteins for 10 minutes at different temperatures up to 100° C. pH stability was tested by incubation of test proteins for 1 hour in either 20 mM glycine-HCl (pH 2) or glycine-NaOH (pH 11) and subsequent dialysis for 16 hours against 10 mM sodium phosphate buffer (pH 7) using benzoylated cellulose tubing. Reduction of dishulphide bridges was done by addition of DTE at 30 mM and Tris-HCl (pH 8.6) at 300 mM. The reagents were removed by reversed-phase chromatography. For digestions, different proteases were added at 200 μg/ml and incubated at 37° C. for 3 hours.

[5] = tested on: plant pathogenic fungi; format: cell-based
[6] = Chitin-binding activity (chitin micro-column, SDS-PAGE of fractions); conditions: 50 μg on chitin micro-column; washed at pH 7, desorbed with 100 mM acetic acid (pH 2.8)
[7] = tested on: Fusarium culmorum spores; format: cell-based; conditions: F culmorum spores; protein 2-4 fold below the IC50 value; light microscope
Text: During the course of screening many different plant species it has become evident that the protein class of the invention is fairly common in plant seeds. […] This is particularly evident when using Fusarium culmorum. The nature of the inhibition may also be characterized by the fact that it is very sensitive to the concentration of cations used in the assay.
This is readily visualised when Fusarium culmorum spores are used in the assay and at concentrations of the proteins which are 2-4 fold below the IC50 value.

[8] = tested on: Phytophthora infestans; format: cell-based
[9] = tested on: Bacillus megaterium ATCC 13632; assay: Antibacterial activity assay (microspectrophotometry); format: cell-based; conditions: B megaterium; 24 hours of incubation at 28° C.
[10] = tested on: Sarcina lutea ATCC 9342; assay: as above; format: cell-based; conditions: S lutea; 24 hours of incubation at 28° C.
[11] = tested on: Erwinia carotovora strain 3912; assay: as above; format: cell-based; conditions: E carotovora; highest test concentration 500 μg/ml
[12] = tested on: B cinerea; assay: Effect of ions on antifungal activity (synthetic growth medium); format: cell-based, Botrytis cinerea; conditions: for increase of IC50 values by CaCl2 at 1 mM: reference medium + 1 mM CaCl2; for drop in specific activity at 5 mM CaCl2: reference medium + 5 mM CaCl2; for effect of KCl at 10 mM on the dose-response curves: reference medium + 10 mM KCl; for increase of IC50 values by KCl at 50 mM: reference medium + 50 mM KCl; for IC50 in reference medium: synthetic growth medium, 2.5 mM monovalent and 0.1 mM divalent cations
[13] = tested on: Alternaria brassicola MUCL 20297; format: cell-based
[14] = tested on: Ascochyta pisi MUCL 30164; format: cell-based
[15] = tested on: Botrytis cinerea MUCL 30158; format: cell-based
[16] = tested on: Cercospora beticola strain K897; format: cell-based
[17] = tested on: Colletotrichum lindemuthianum MUCL 9577; format: cell-based
[18] = tested on: Verticillium dahliae MUCL 19210; format: cell-based

Substance	IC50 (activity on bacteria) [3] [µg/mL]	antifungal activity after heat treatment at up to 80° C. [4]	antifungal activity after reduction of disulphide bonds [4]	antifungal activity in high salt (medium B) [5]	affinity toward chitin [6]	morphological change of partially inhibited spores [7]	IC50 (antibacterial activity) [10] [µg/mL]	IC50 (antibacterial activity) [11]	IC50 (antibacterial activity) [3]	increase of IC50 values by CaCl2 at 1 mM [12]	drop in specific activity at 5 mM CaCl2 [12]	effect of KCl at 10 mM on the dose-response curves [12]	increase of IC50 values by KCl at 50 mM [12]	IC50 in reference medium [12] [µg/mL]	also measured
Bm-AMP1: antimicrobial protein purified from seeds of Briza maxima; may be a mixture of peptides varying at positions 9 and 23 (SEQ ID NO:16)	> 800	resistant	completely abolished	essentially abolished											IC50 Medium B [1]: > 500 µg/mL; IC50 Medium B [2]: > 500 µg/mL; number of fungi with IC50 value below 10 μg/ml [5]: six of the eight
Ca-AMP1: antimicrobial protein purified from seeds of Capsicum annuum (SEQ ID NO:15) (QEQCGNQAGGRACANRLCCSQYGYCGSTRAYCGVGCQSNCGR)	> 800	resistant	completely abolished	essentially abolished	exhibits affinity to chitin	severe branching of the emerging hyphal tips									antifungal activity after treatment with chymotrypsin ([4]; chymotrypsin): no affect on activity; reduction of antifungal activity after treatment with pronase E ([4]; pronase E): at least 10 fold; reduction of antifungal activity after treatment with proteinase K ([4]; proteinase K): at least 10 fold; reduction of antifungal activity after treatment with trypsin ([4]; trypsin): 2 fold; number of fungi with IC50 value below 50 μg/ml [5]: 12 of the 18
Ac-AMP1: antimicrobial protein from Amaranthus caudatus seeds, 29 residues, dimer of 3 kDa subunits (SEQ ID NO:5) (VGECVRGRCPSGMCCSQFGYCGKGPKYCG; cysteine pairing not given here; also: dimer of subunits)					exhibit affinity toward chitin	severe branching of the emerging hyphal tips	250	no inhibition	no inhibition	five to six-fold	more than 50 fold	did not significantly affect	about three-fold	2.2	IC50 (concentration required for 50% growth inhibition) [8]: 12; IC50 (antibacterial activity) [9]: 40 µg/mL
Ac-AMP2: antimicrobial protein from Amaranthus caudatus seeds, 30 residues, Ac-AMP1 plus carboxyl-terminal arginine (SEQ ID NO:6) (VGECVRGRCPSGMCCSQFGYCGKGPKYCGR)					exhibit affinity toward chitin		40	no inhibition	no inhibition	five to six-fold	more than 50 fold	did not significantly affect	about three-fold	1.6	IC50 (concentration required for 50% growth inhibition) [13]: 4; IC50 (concentration required for 50% growth inhibition) [14]: 8; IC50 (concentration required for 50% growth inhibition) [15]: 8; IC50 (concentration required for 50% growth inhibition) [16]: 0.8; IC50 (concentration required for 50% growth inhibition) [17]: 8; IC50 (concentration required for 50% growth inhibition) [18]: 5
